Patent publication US11629201B2, “PSMA-binding agents and uses thereof” (ITM Isotope Technologies Munich SE, priority 2017, dated 2023)
“And” between values parts separate entries of the source, which are not always exact repeats. Equal entries are not always repeated.

Tests used:
[1] = tested on: prostate adenocarcinoma with metastases; assay: Individual curative trial, SPECT-CT, Lutetium-177 labeled compound (Case 1); format: in vivo, human; conditions: patient, radiolabeled with Lutetium-177
Method: The compound PSMA-ALB-06, radiolabeled with therapeutic radionuclide Lutetium-177 was used in the scope of an individual curative trial in a patient with mildly differentiated prostate adenocarcinoma with extensive bilobar liver metastases, as well as disseminated osteoblastic metastases (in the pelvic region), and polytopic voluminous lymph node metastases. The evaluation of the biodistribution and in vivo behavior of the radiolabeled compound PSMA-ALB-06 was performed by means of SPECT-CT measurements.
The SPECT-CT visualization was performed at different time points up to 46 hours post injection (p.i.). […] The blood clearance is completed within first hours, whereas the unspecific uptake in healthy organs (especially liver, salivary and kidney) remains moderate over the time.

[2] = tested on: metastatic castration-resistant prostate cancer; assay: Individual curative trial, PET-CT, Gallium-68 labeled compound (Case 2); format: in vivo, human; conditions: patient; radiolabeled with Gallium-68
Description: The compound PSMA-ALB-06, radiolabeled with a positron emitting radionuclide Gallium-68 was used in an individual curative trial in a patient with metastatic castration-resistant prostate cancer as a diagnostic agents for PET-CT. […] The high contrast of the images increases over the time after injection confirming the prolonged blood clearance and high specific uptake in the tumors.

[3] = tested on: PC-3 PIP/flu tumor-bearing mice; assay: Biodistribution studies in PC-3 PIP/flu tumor-bearing mice; conditions: for Tu-to-muscle / Tumor-to-blood / Tumor-to-kidney / Tumor-to-liver: PC-3 PIP tumor
[4] = tested on: PC-3 PIP/flu tumor-bearing mice; assay: PET/CT imaging of PC-3 PIP/flu tumor-bearing mice; format: in vivo; conditions: 16 h after injection
Method: PET/CT Imaging Studies. PET/CT experiments were performed at 1 h, 4 h and 24 h after injection of the radioligands (5 MBq/l nmol). Mice were injected into a lateral tail vein with the respective radioligand (5 MBq, 1 nmol, 100 μL) diluted in saline containing 0.05% BSA. PET/CT scans were performed using a small-animal PET/CT scanner (G8, Perkin Elmer, Massachusetts, U.S.) as previously reported. The PET scans lasted for 10 min and were followed by a CT scan of 1.5 min. During the in vivo scans, the mice were anesthetized with a mixture of isoflurane and oxygen. Reconstruction of acquired data was performed using the software of the provider of the G8 scanner. All images were prepared using VivoQuant post-processing software (version 3.0, inviCRO Imaging Services and Software, Boston USA). The images were prepared by cutting 2% of the lower scale to make the tumors, liver and kidneys best visible.

[5] = tested on: PSMA-positive PC-3 PIP cells; assay: Cell uptake and internalization in PSMA-positive PC-3 PIP cells; format: cell-based
human plasma proteins = assay: Ultrafiltration assay, binding to human plasma proteins
Method: Therefore, the compounds were labeled with ^177Lu at a specific activity of 50 MBq/nmol and incubated in human plasma samples or PBS at room temperature. The free and plasma-bound fractions were separated using a centrifree ultrafiltration device (4104 centrifugal filter units [Millipore]; 30000 Da nominal molecular weight limit, methylcellulose micropartition membranes). The incubated solution was loaded to the ultrafiltration device and centrifuged at 2500 rpm for 40 min at 20° C. Samples from the filtrate were taken an analyzed for radioactivity in a gamma-counter. The amount of plasma-bound compound was calculated as the fraction of radioactivity measured in the filtrate relative to the corresponding loading solution (set to 100%).
Determination of Albumin-binding Properties. The binding of the radioligands to human plasma proteins was determined by an ultrafiltration assay. […] Three independent experiments were performed in duplicates with both radioligands and the data was fitted to a semi-logarithmic plot (non-linear regression, one-site, specific binding) to obtain the half maximum binding (B50) in GraphPad Prism software (version 7).
The ^177Lu-labeled PSMA ligands (50 MBq/nmol) were diluted in mouse plasma (Rockland, USA) and human plasma (Stiftung Blutspende SRK Aargau-Solothurn, Switzerland), respectively, and incubated for 15 min at room temperature. In addition, the radioligands were diluted in PBS (buffer solution without proteins) as a control experiment. Aliquots of the solutions were loaded onto an ultrafiltration device and centrifuged. The filtered activity was measured with a γ-counter and used for calculating the plasma protein-bound activity (retained on the filter membrane) as the percentage of total added activity. […] Statistical analysis (one-way ANOVA with Bonferroni's multiple comparison post-test) was performed using GraphPad Prism software, version 7. A p-value of <0.05 was considered statistically significant.

[6] = n-Octanol/PBS distribution coefficient (log D); format: physicochemical; conditions: n-octanol/PBS; radiolabeled ligand, 50 MBq/nmol, PBS pH 7.4
Method: The radioligand (0.5 MBq; 10 pmol, 25 μL) was then added to a reagent tube containing 1475 μL of PBS pH 7.4 and 1500 μL of n-octanol. The vials were vortexed vigorously followed by a centrifugation step for phase separation.
Determination of n-Octanol/PBS Distribution Coefficients (Log D Values). The distribution coefficients (log D values) of the ^64Cu-labeled radioligands (50 MBq/nmol) were determined by a shake-flask method using liquid-liquid extraction followed by phase separation as previously reported. Three experiments were performed with five replicates for each radioligand. Statistical significance of the data (p<0.05) was evaluated using an unpaired t-test (GraphPad Prism software, version 7).
Determination of n-Octanol/PBS Distribution Coefficients (Log D Values). […] A sample of the radioligands was mixed with phosphate-buffered saline (PBS) and n-octanol followed by vigorous vortexing. […] Three experiments were performed with five replicates for each compound.

mouse plasma proteins = assay: Ultrafiltration assay, binding to mouse plasma proteins; format: in vitro ADME
Method: Filter Assay. […] In addition, the radioligands were diluted in PBS (buffer solution without proteins) as a control experiment. Aliquots of the solutions were loaded onto an ultrafiltration device and centrifuged. The filtered activity was measured with a γ-counter and used for calculating the plasma protein-bound activity (retained on the filter membrane) as the percentage of total added activity. […] Statistical analysis (one-way ANOVA with Bonferroni's multiple comparison post-test) was performed using GraphPad Prism software, version 7. A p-value of <0.05 was considered statistically significant.

[7] = non-decay-corrected biodistribution data up to 192 h p.i.

SMILES: Cc1ccc(CCCC(=O)NCCCCC(NC(=O)CN2CCN(CC(=O)O)CCN(CC(=O)O)CCN(CC(=O)O)CC2)C(=O)NCC2CCC(C(=O)NC(Cc3ccc4ccccc4c3)C(=O)NCCCCC(NC(=O)NC(CCC(=O)O)C(=O)O)C(=O)O)CC2)cc1 (stereo not shown) [PSMA-ALB-06]
- uptake in malignant tissues (SPECT-CT) [1]: substantial specific uptake of the radiolabeled compound in malignant tissues
- blood circulation and bioavailability ([1]; up to 46 hours p.i.): prolonged blood circulation and improved bioavailability
- visualization of malignant tissues (PET) [2]: Malignant tissues could be visualized by means of PET with high specificity

SMILES: Cc1ccc(CCCC(=O)NCCCC[C@H](NC(=O)CCC(C(=O)O)N2CCN(CC(=O)O)CCN(CC(=O)O)CC2)C(=O)NC[C@H]2CC[C@H](C(=O)N[C@H](Cc3ccc4ccccc4c3)C(=O)NCCCC[C@@H](NC(=O)N[C@H](CCC(=O)O)C(=O)O)C(=O)O)CC2)cc1 (stereo partly shown) [^64Cu-PSMA-ALB-89, metal not drawn]
- Tu-to-muscle ([3]; 1 h p.i.): 9.0 ± 1.13
- Tumor-to-blood ([3]; 1 h p.i.): 0.91 ± 0.02
- Tumor-to-kidney ([3]; 1 h p.i.): 0.40 ± 0.02
- Tumor-to-liver ([3]; 1 h p.i.): 3.37 ± 0.31
- Tu-to-muscle ([3]; 4 h p.i.): 36.3 ± 2.25
- Tumor-to-blood ([3]; 4 h p.i.): 3.61 ± 0.30
- Tumor-to-kidney ([3]; 4 h p.i.): 0.70 ± 0.04
- Tumor-to-liver ([3]; 4 h p.i.): 13.3 ± 1.20
- Blood ([3]; 24 h p.i.): < 3.2 % IA/g
- PC-3 PIP Tumor ([3]; 24 h p.i.): 97.1±7.01 % IA/g
- Tu-to-muscle ([3]; 24 h p.i.): 200±38.2
- Tumor-to-blood ([3]; 24 h p.i.): 31.3 ± 3.82
- Tumor-to-kidney ([3]; 24 h p.i.): 2.68 ± 0.36
- Tumor-to-liver ([3]; 24 h p.i.): 23.6 ± 3.37
- tumor-to-kidney ratio of accumulated radioligand (visual examination) [4]: > 1
- cell uptake ([5]; 2 h): ~46%
- internalized fraction ([5]; 2 h): ~14%
- cell uptake ([5]; 4 h): ~52%
- internalized fraction ([5]; 4 h): ~14%
- half-maximum binding (B50), [HSA]-to-[radioligand] ratio (human plasma proteins; different dilutions of human plasma): 454 and 770
- logD [6]: -2.3 ± 0.7

SMILES: O=C(O)CCC(NC(=O)NC(CCCCNC(=O)C(Cc1ccc2ccccc2c1)NC(=O)C1CCC(CNC(=O)C(CCCCNC(=O)CN2CCN(CC(=O)O)CCN(CC(=O)O)CCN(CC(=O)O)CC2)NC(=O)CC(NC(=O)CC(NC(=O)CC(NC(=O)CCCc2ccc(I)cc2)C(=O)O)C(=O)O)C(=O)O)CC1)C(=O)O)C(=O)O (stereo not shown) [^177Lu-PSMA-ALB-07, metal not drawn]
- Blood ([3]; 4 h p.i.): 6.67 ± 2.04 % IA/g
- Bone ([3]; 4 h p.i.): 1.30 ± 0.27 % IA/g
- Heart ([3]; 4 h p.i.): 2.43 ± 0.78 % IA/g
- Intestines ([3]; 4 h p.i.): 1.27 ± 0.45 % IA/g
- Kidneys ([3]; 4 h p.i.): 67.0 ± 9.50 % IA/g
- Liver ([3]; 4 h p.i.): 1.94 ± 1.02 % IA/g
- Lung ([3]; 4 h p.i.): 4.67 ± 0.92 % IA/g
- Muscle ([3]; 4 h p.i.): 0.78 ± 0.22 % IA/g
- PC-3 PIP Tumor ([3]; 4 h p.i.): 63.5 ± 27.4 % IA/g
- PC-3 flu Tumor ([3]; 4 h p.i.): 1.80 ± 0.27 % IA/g
- Salivary glands ([3]; 4 h p.i.): 2.09 ± 0.50 % IA/g
- Spleen ([3]; 4 h p.i.): 3.41 ± 1.46 % IA/g
- Stomach ([3]; 4 h p.i.): 1.09 ± 0.30 % IA/g
- Tumor-to-blood ([3]; 4 h p.i.): 9327 ± 1.75
- Tumor-to-kidney ([3]; 4 h p.i.): 0.88 ± 0.28
- Tumor-to-liver ([3]; 4 h p.i.): 33.6 ± 6.56
- Blood ([3]; 24 h p.i.): 0.79 ± 0.08 % IA/g
- Bone ([3]; 24 h p.i.): 0.31 ± 0.10 % IA/g
- Heart ([3]; 24 h p.i.): 0.40 ± 0.00 % IA/g
- Intestines ([3]; 24 h p.i.): 0.20 ± 0.03 % IA/g
- Kidneys ([3]; 24 h p.i.): 51.9 ± 6.34 % IA/g
- Liver ([3]; 24 h p.i.): 0.52 ± 0.04 % IA/g
- Lung ([3]; 24 h p.i.): 0.73 ± 0.06 % IA/g
- Muscle ([3]; 24 h p.i.): 0.13 ± 0.01 % IA/g
- PC-3 PIP Tumor ([3]; 24 h p.i.): 84.6 ± 14.2 % IA/g
- PC-3 flu Tumor ([3]; 24 h p.i.): 0.80 ± 0.17 % IA/g
- Salivary glands ([3]; 24 h p.i.): 0.43 ± 0.04 % IA/g
- Spleen ([3]; 24 h p.i.): 1.14 ± 0.04 % IA/g
- Stomach ([3]; 24 h p.i.): 0.18 ± 0.06 % IA/g
- Tumor-to-blood ([3]; 24 h p.i.): 107 ± 12.2 and 107 ± 10
- Tumor-to-kidney ([3]; 24 h p.i.): 1.64 ± 0.29 and 1.6 ± 0.2
- Tumor-to-liver ([3]; 24 h p.i.): 162 ± 17.3 and 162 ± 14
- Tumor-to-blood ([3]; 48 h p.i.): 154 ± 7
- Tumor-to-kidney ([3]; 48 h p.i.): 2.3 ± 0.1
- Tumor-to-liver ([3]; 48 h p.i.): 131 ± 13
- Blood ([3]; 72 h p.i.): 0.40 ± 0.06 % IA/g
- Bone ([3]; 72 h p.i.): 0.31 ± 0.06 % IA/g
- Heart ([3]; 72 h p.i.): 0.21 ± 0.01 % IA/g
- Intestines ([3]; 72 h p.i.): 0.10 ± 0.01 % IA/g
- Kidneys ([3]; 72 h p.i.): 26.0 ± 1.58 % IA/g
- Liver ([3]; 72 h p.i.): 0.44 ± 0.08 % IA/g
- Lung ([3]; 72 h p.i.): 0.43 ± 0.02 % IA/g
- Muscle ([3]; 72 h p.i.): 0.08 ± 0.01 % IA/g
- PC-3 PIP Tumor ([3]; 72 h p.i.): 62.6 ± 6.35 % IA/g
- PC-3 flu Tumor ([3]; 72 h p.i.): 0.43 ± 0.04 % IA/g
- Salivary glands ([3]; 72 h p.i.): 0.21 ± 0.01 % IA/g
- Spleen ([3]; 72 h p.i.): 0.49 ± 0.03 % IA/g
- Stomach ([3]; 72 h p.i.): 0.10 ± 0.01 % IA/g
- Tumor-to-blood ([3]; 72 h p.i.): 160 ± 37.0
- Tumor-to-kidney ([3]; 72 h p.i.): 2.41 ± 0.18
- Tumor-to-liver ([3]; 72 h p.i.): 147 ± 38.4
- AUC PC-3 PIP tumor [3, 7]: 7007 ± 459 % IA/g · h
- AUC blood [3, 7]: 180 ± 7.2 % IA/g · h
- AUC kidneys [3, 7]: 3395 ± 201 % IA/g · h
- AUC liver [3, 7]: 72 ± 3.6 % IA/g · h
- Ratio of AUCs AUCTu-to-AUCBl ([3]; tumor to blood): 39
- Ratio of AUCs AUC-Tu-to-AUC-Ki ([3]; tumor to kidneys): 2.1
- Ratio of AUCs AUCTu-to-AUCLi ([3]; tumor to liver): 97
- plasma protein-bound fraction (mouse plasma proteins): 64±2.1%
- cell uptake ([5]; 2 h): 52-57%
- internalized fraction ([5]; 2 h): 18-24%
- cell uptake ([5]; 4 h): 60-63%
- internalized fraction ([5]; 4 h): 20-26%
- plasma protein-bound fraction (human plasma proteins; human plasma, ultrafiltration): 95±0.1%
